In patent US8465960B2 (priority 2007, dated 2013):

How the values were obtained:
[1] = system: influenza B virus NA with Gly402Ser mutation; format: biochemical
[2] = molecular target: influenza B virus NA with Ser250Gly mutation (Influenza B virus, UniProt P27907, S248G); format: biochemical
[3] = molecular target: influenza B virus NA with Asp198Asn mutation (Influenza B virus, UniProt P27907, D196N)
[4] = molecular target: influenza B virus NA with Ile222Thr mutation (UniProt P03474, I221T, species not given)

In the case of `CCOC(=O)C1=C[C@@H](OC(CC)CC)[C@H](NC(C)=O)[C@@H](N)C1` [oseltamivir], the “increase of IC50 of posttreatment isolate compared to virus isolated before treatment” value [1] is reported as 3.9 fold, the “effect of mutation on sensitivity” value [2] is reported as “did not reduce sensitivity” and the “reduction in drug sensitivity compared with median IC50 of type B viruses” value [3] is reported as 3-4 fold. The “reduction in sensitivity compared with median IC50 of type B viruses” value [4] was 6-7 fold.
